ChEMBL document CHEMBL1201862, “PubChem BioAssay data set” (2004)
Calls of active or inactive are those of the source.

Key:
Protein skinhead-1 = target: T1, Protein skinhead-1 (Caenorhabditis elegans, UniProt P34707); assay type: functional
T1 sequence (P34707 whole entry): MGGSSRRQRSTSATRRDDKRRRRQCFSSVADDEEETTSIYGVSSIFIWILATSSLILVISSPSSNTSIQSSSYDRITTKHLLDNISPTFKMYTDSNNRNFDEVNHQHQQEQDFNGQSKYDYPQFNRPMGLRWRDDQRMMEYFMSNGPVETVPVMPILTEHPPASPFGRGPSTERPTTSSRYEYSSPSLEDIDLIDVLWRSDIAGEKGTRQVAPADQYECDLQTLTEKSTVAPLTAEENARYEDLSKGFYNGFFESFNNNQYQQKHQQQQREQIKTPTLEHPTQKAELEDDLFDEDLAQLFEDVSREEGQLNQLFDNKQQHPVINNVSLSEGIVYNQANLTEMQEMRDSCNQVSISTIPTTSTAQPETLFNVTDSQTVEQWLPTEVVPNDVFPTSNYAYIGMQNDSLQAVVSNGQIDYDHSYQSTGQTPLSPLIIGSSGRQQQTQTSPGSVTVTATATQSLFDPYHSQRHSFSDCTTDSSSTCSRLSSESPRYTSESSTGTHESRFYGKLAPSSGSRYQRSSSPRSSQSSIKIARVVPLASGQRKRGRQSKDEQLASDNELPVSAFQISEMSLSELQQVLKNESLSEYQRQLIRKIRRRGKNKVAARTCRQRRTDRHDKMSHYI

Nonstructural protein 1 = Nonstructural protein 1 (Influenza A virus, UniProt Q194T2); assay type: functional, Influenza A virus (A/California/07/2009(H1N1))
[1] = target: T2, Ubiquitin-conjugating enzyme E2 N (Homo sapiens, UniProt P61088); assay type: functional;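 also: Dose-response confirmation in a TR-FRET assay detecting UBC13-driven polyubiquitin chain formation, inhibition measured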
T2 sequence (P61088 whole entry): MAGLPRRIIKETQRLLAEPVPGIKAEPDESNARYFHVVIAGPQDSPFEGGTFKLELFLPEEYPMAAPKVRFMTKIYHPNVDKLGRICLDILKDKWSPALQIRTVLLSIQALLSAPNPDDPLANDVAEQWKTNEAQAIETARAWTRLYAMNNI

[2] = HEp-2 cell cytotoxicity, dose response, cytotoxicity control for RSV inhibitor project, HTS (AID 2410); assay type: functional; conditions: human respiratory syncytial virus
[3] = P. falciparum Dd2 growth inhibitors, dose response, SYBR Green, cherry-picked samples (AID 1159567); assay type: functional, cell-based
[4] = system: Streptococcus sp. 'group A'; assay: growth inhibition of control SK(-) GAS strain, dose response, counter-screen for streptokinase expression inhibitor project, luminescence, kanamycin, BacTiterGlo, confirmation (AID 1900); assay type: functional, organism-based
Streptokinase A = target: T3, Streptokinase A (Streptococcus pyogenes serotype M1, UniProt P10520); assay: S. pyogenes streptokinase expression inhibitors, potency, dose response, plasminogen activation absorbance, OD405 (AID 1914); assay type: functional, Streptococcus pyogenes M1 GAS;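 also: secreted streptokinase activity via plasminogen activation per viability signal from cell pellet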
T3 sequence (P10520 whole entry): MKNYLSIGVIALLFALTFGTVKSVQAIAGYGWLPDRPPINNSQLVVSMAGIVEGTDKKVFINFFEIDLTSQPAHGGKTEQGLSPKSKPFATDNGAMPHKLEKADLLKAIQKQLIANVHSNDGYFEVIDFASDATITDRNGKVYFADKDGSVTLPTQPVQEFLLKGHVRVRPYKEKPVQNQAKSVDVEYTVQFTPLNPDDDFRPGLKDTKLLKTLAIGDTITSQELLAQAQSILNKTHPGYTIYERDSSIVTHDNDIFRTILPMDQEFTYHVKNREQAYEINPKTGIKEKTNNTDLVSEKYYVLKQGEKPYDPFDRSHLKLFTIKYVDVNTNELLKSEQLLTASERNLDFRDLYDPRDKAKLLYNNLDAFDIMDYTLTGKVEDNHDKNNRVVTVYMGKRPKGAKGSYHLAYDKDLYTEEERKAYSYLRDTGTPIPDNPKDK

Streptococcus = assay: Group A Streptococcus viability loss, dose response, counter-screen for streptokinase expression inhibitor project, luminescence, BacTiterGlo (AID 1915); assay type: functional, organism-based;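 also: potency for reduction of bacterial viability or growth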
[5] = target: Luciferin 4-monooxygenase (Photinus pyralis, UniProt P08659); assay: firefly luciferase enzyme inhibitors, dose response, biochemical, luminescence (AID 1891)
[6] = Luminescence Cell-Based Dose Confirmation HTS to Identify Inhibitors of Platelet Dense Granule Release. [Related pubchem assays: 1663 (Primary HTS), 1678 (Summary of Project)]; assay type: functional
[7] = target: T4, RNA-binding protein pos-1 (Caenorhabditis elegans, UniProt G5EF15); assay: inhibitors of POS-1/mex-3 RNA binding, dose response, biochemical, fluorescence polarization (AID 1964);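 also: purified POS-1 fused to maltose binding protein made in E. coli; potency of compounds blocking POS-1 binding to fluorescent RNA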
T4 sequence (G5EF15 whole entry): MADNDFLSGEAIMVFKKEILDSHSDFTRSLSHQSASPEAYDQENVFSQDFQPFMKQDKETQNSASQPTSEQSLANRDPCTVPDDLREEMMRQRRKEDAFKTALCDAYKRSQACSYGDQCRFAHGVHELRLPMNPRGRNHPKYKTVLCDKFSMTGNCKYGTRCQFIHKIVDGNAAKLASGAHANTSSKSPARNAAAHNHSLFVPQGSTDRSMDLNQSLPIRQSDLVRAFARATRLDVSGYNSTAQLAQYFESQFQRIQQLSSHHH

[8] = target: T5, Zinc finger protein mex-5 (Caenorhabditis elegans, UniProt Q9XUB2); assay: MEX-5/TCR-2 RNA interaction inhibitors, dose response, biochemical, C. elegans, fluorescence polarization (AID 1960)
T5 sequence (Q9XUB2 whole entry): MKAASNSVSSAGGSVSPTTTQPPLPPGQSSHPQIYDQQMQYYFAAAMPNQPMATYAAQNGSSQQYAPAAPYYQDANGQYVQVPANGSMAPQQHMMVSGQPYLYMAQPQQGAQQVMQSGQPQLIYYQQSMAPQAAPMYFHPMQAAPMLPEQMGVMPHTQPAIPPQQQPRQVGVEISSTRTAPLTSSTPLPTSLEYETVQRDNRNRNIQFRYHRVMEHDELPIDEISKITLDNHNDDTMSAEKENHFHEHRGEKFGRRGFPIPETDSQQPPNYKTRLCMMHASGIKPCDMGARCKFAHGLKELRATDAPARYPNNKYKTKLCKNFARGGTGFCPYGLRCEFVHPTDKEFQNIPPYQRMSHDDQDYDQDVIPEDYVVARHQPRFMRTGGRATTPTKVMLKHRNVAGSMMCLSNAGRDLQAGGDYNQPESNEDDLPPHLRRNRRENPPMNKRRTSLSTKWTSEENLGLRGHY

[9] = microbe, parasite or virus in culture; assay type: functional; conditions: Mycobacterium tuberculosis
Vero = assay: cells; assay type: functional; conditions: Chlorocebus sabaeus
H9c2 = assay: cells; assay type: functional, cell-based; conditions: Rattus norvegicus, H9c2, Myocardium;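 also: confirmatory concentration-response retest of ultra-high-throughput screening hits for modulation of myocardial damage; cell death induced by hydrogen peroxide oxidative stress; compound pretreatment for 60 min then peroxide exposure for 2 h; potency is for protecting the cells against peroxide damage rather than for killing them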

Sequence of Nonstructural protein 1 (Q194T2 whole entry): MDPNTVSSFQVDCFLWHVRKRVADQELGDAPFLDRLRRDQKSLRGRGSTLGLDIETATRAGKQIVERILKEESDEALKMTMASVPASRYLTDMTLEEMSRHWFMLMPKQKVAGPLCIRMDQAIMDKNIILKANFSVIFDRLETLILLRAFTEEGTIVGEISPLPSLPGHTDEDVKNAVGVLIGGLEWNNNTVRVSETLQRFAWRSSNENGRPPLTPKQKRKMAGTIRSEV
Sequence of Luciferin 4-monooxygenase (P08659 whole entry): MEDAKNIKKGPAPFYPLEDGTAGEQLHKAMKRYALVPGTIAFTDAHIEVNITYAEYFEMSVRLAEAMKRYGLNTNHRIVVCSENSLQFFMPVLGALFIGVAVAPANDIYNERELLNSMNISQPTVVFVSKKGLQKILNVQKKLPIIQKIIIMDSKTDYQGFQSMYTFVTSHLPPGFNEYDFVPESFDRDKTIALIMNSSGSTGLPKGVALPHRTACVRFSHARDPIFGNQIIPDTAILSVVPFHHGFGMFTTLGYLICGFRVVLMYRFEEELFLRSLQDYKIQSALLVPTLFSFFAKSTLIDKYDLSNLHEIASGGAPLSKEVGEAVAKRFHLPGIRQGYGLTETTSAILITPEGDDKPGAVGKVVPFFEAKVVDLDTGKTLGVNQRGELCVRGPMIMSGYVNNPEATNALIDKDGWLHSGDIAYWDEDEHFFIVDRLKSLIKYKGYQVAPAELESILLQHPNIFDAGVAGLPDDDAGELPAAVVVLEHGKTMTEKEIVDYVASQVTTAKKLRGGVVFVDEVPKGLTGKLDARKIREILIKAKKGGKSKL

With `N#Cc1cncc(C#Cc2ccccc2)c1` the IC50 (Protein skinhead-1) was 16.9 µM (active).

For `CC1C/C(=N/Nc2ccc([N+](=O)[O-])cc2[N+](=O)[O-])CC(C)(C)C1` (stereo not drawn), the IC50 (Nonstructural protein 1) was 46 µM (active).

In the case of `Brc1cccc(-c2nc(-c3ccncc3)no2)c1`, the IC50 (Protein skinhead-1) is reported as 16.6 µM (active).

With `Cc1cc2ccccc2n1CCNC(=O)C1CCCC1` the IC50 (Protein skinhead-1) was > 100 µM (inactive).

For `CCCn1c2ccccc2c2nc3ccccc3nc21`, the IC50 [1] was > 20 µM (inactive) and the CC50 [2] was > 50 µM (active).

In the case of `COC(=O)c1ccc(CN2CC(=O)N3[C@H](CO)[C@@H](c4ccc(-c5ccccc5F)cc4)[C@H]3C2)cc1`, the AC50 [3] is reported as 30 µM (active).

For `Cc1[nH]c2ccccc2c1C(c1ccccn1)c1c(C)[nH]c2ccccc12`, the EC50 [4] was 5.36 µM (active), the EC50 (Streptokinase A) was > 150 µM (not active) and the EC50 (Streptococcus) was 12.1 µM (active). The IC50 (Nonstructural protein 1) was > 100 µM (active).

With `CCOc1ccc(N2CC(C(=O)NCCc3ccc(OC)c(OC)c3)CC2=O)cc1` (stereo not drawn) the EC50 [5] was > 112 µM (not active) and the EC50 [6] was 36.1 µM (active).

For `O=C1CSC(N/N=C/c2cccs2)=N1`, the EC50 [7] was > 300 µM (not active) and the EC50 [8] was > 300 µM (not active).

With `Cn1ncc(Cl)c1C(=O)N/N=C/c1cccc(OC2CSC2)c1` the EC50 [7] was > 300 µM (not active) and the EC50 [8] was > 300 µM (not active).

In the case of `COc1ccc(CNc2ccc(-c3ccc(OC)cc3)nn2)cc1`, the EC50 [5] is reported as > 112 µM (not active) and the EC50 [6] is reported as > 112 µM (not active).

In the case of `COCOCCn1cc(CN2CCS(=O)(=O)N(Cc3ccc(-c4cccc(N(C)C)c4)cc3)C(C(C)C)C2=O)nn1` (stereo not drawn), the IC50 (Protein skinhead-1) is reported as > 100 µM (inactive).

With `Oc1ccc2ccccc2c1N=Nc1ccccc1F` the IC50 (Nonstructural protein 1) was 20.4 µM (active).

With `CN(C)c1ccc(N=Nc2ccccc2C(=O)OCC(=O)NCC2CCCCC2)cc1` the CC50 [9] was > 40 µM (active).

For `O=C(CCC(=O)N1CCOc2ccc(Cl)cc21)NCCCN1CCC(Cc2ccccc2)CC1`, the IC50 [1] was > 20 µM (inactive) and the CC50 (Vero) was 18.9 µM (active).

With `Cc1cc(-n2c(C)cc(C(=O)COc3ccc4ccc(=O)oc4c3)c2C)no1` the IC50 (H9c2) was 24.7 µM (active) and the CC50 [9] was > 40 µM (active).

In the case of `N#CC1=C(N)OC2=C(C(=O)CCC2)C1c1cc2c(cc1Cl)OCO2` (stereo not drawn), the EC50 [7] is reported as > 300 µM (not active) and the EC50 [8] is reported as > 300 µM (not active).
